Legend:
[1] = test system: Nr4a1 (Nur77) reporter; assay: CAR signaling in Jurkat Nur77 reporter cell line; assay type: cell-based; conditions: anti-CD19 CAR or anti-ROR1 CAR; up to 6 hours
From the text: Cells of a reporter cell line were transduced using lentiviral vectors encoding the anti-CD19 CAR described in Example 14 or an anti-ROR1 CAR were introduced into cells of a Jurkat reporter cell line to assess CAR signaling in the presence of CAR stimulation. The anti-ROR1 CAR contained an anti-ROR1 scFv derived from a murine antibody, an immunoglobulin-derived spacer, a transmembrane domain derived from CD28, a costimulatory region derived from 4-1BB, and a CD3-zeta intracellular signaling domain. The Jurkat reporter cell lines contained a red fluorescent protein inserted by knock-ininto the endogenous Nr4a1 (Nur77) gene.

[2] = test system: K562.CD19, Raji cells or Granta-519 cells; assay: Cytolytic activity against CD19+ tumor cells, rescue with Compound 2 after chronic stimulation; assay type: cell-based, human; conditions: 0.001 μM or 0.01 μM during rechallenge; E:T 1:1
Method: Long-term, chronic stimulation was carried out by stimulation of CAR T cells with 30 μg/mL plate-bound anti-idiotypic (anti-ID) antibody for 6 days, substantially as described in Example 22.
(§1) The assessed CD19+tumor cells included K562 cells transduced with CD19 (K562.CD19), Raji cells or Granta-519 cells.

[3] = test system: K562.CD19, Raji cells or Granta-519 cells; assay: Cytolytic activity against CD19+ tumor cells after concurrent Compound 2 during chronic stimulation; assay type: cell-based, human; conditions: 0.001 μM or 0.01 μM concurrent; E:T 1:1
From the text: as §1

[4] = test system: OPM-2; assay: OPM-2 human multiple myeloma orthotopic mouse model, Study 2; assay type: in vivo
Method: In a further study, NOD/Scid/gc^−/− (NSG) mice were injected (i.v.) with OPM-2-luciferase cells as described in Study 1 above and allowed to engraft for 14 days prior to CAR-T (or mock) cell; infusion (i.v.).
At 14 days after tumor cell injection (day 0), a subtherapeutic dose of CAR+ T cells (1×10^6 CAR-T cells (generated from two different donors)) or mock control cells was injected intravenously. Data are presented as mean±SEM. For in vivo survival, a Gehan-Breslow-Wilcoxon test was used to compare groups.
FIG. 10E depicts the results of tumor burden assessment through day 60, as analyzed by the bioluminescence […]. […] P values were obtained by likelihood ratio tests comparing the full model with the effect of interest against the model without the effect of interest.
Blood from the treated mice was collected for CAR-T pharmacokinetic analysis, and cells were stained with antibodies to exclude mouse-specific cells (H2-kd, TER119, and muCD45) and analyzed by flow cytometry. Cells were gated on CD45+CD3+ CAR+ and the cells per microliter of blood was determined. For pharmacokinetic measurements, each time point was analyzed by one-way ANOVA and Tukey post-hoc test. FIGS. 10G and 10H show the flow cytometric analysis of mock control cells and CAR-T cells in the blood of the mice at days 8, 14, 22, and 28 following injection of the CAR-T cells from two donors.

[5] = concurrent lenalidomide (from day −1), vs vehicle with anti-BCMA CAR T alone

Cc1nc2cccc(N)c2c(=O)n1C1CCC(=O)NC1=O (centres unmarked) [Compound 1, 3-(5-amino-2-methyl-4-oxo-4H-quinazolin-3-yl)-piperidine-2,6-dione]
Nur77 reporter signal following CAR-specific stimulation [1]: increased

O=C1CC[C@H](N2Cc3c(OCc4ccc(CN5CCOCC5)cc4)cccc3C2=O)C(=O)N1 [Compound 2, (S)-3-[4-(4-morpholin-4-ylmethyl-benzyloxy)-1-oxo-1,3-dihydro-isoindol-2-yl]-piperidine-2,6-dione]
cytolytic activity (tumor cell number over time) [2]: statistically significant improvement in cytolytic activity
cytolytic activity (tumor cell number over time) [3]: improved

Nc1cccc2c1CN(C1CCC(=O)NC1=O)C2=O (centres unmarked) [lenalidomide, 3-(4-amino-1-oxo-1,3-dihydro-2H-isoindol-2-yl)piperidine-2,6-dione]
tumor growth and tumor burden in mice administered CAR+ T cells ([4]; 10 mg/kg i.p. daily, 1×10^6 CAR-T cells, both donors, through day 60): slower tumor growth and reduced tumor burden
survival, donor 1 and donor 2 [4, 5]: increased survival
tumor burden, donor 1 [4, 5]: significant decrease
CAR T counts in the peripheral blood after 7 days ([4]; concurrent lenalidomide dosing regimen, not at later time points): increased
mock CAR T effect on tumor burden, donor 1 ([4]; lenalidomide with mock cells): small, but significant

Source: US20250186503A1, “METHODS AND COMBINATIONS FOR TREATMENT AND T CELL MODULATION” (Juno Therapeutics, Inc., priority 2018, published 2025)
